Source: article PMC12298827, “Subchronic Toxicities of Four Per- and Polyfluoroalkyl Substances (PFASs) by Oral Exposure in Sprague–Dawley Rats” (Toxics, 2025)

System: male and female Sprague–Dawley rats
Test: 90-day subchronic oral gavage toxicity study
Format: in vivo, rat
Design: key to NOEL, absolute liver weight increase / LOEL, absolute liver weight increase / NOEL, relative kidney weight increase / LOEL, relative kidney weight increase / NOEL, absolute kidney weight increase / LOEL, absolute kidney weight increase / NOEL, relative liver weight increase / LOEL, relative liver weight increase: NR: no response, no statistically significant dose-dependent changes
Method: Subchronic (90-day) studies were performed in accordance with current U.S. EPA’s Toxic Substances Control Act Good Laboratory Practice (GLP) Standards, with the following two general exceptions to the GLP guidelines: Analysis of the dose formulations was conducted according to RTI-approved Standard Operating Procedures, and corn oil (the vehicle) was not characterized (certificate of analysis from the vendor is available in the appendices to the final reports). Male and female Sprague–Dawley rats (five dose levels plus a control, n = 10/sex/dose group, corn oil vehicle dose volume of 3 mL/kg; oral gavage) were used in these studies, and the rats were euthanized on SD 91. The dose levels for PFHI were 0, 12.5, 25, 50, 100, and 200 mg/kg-day. The dose levels for MHFPK were 0, 18.8, 37.5, 75, 150, and 300 mg/kg-day. The dose levels for PFNAC were 0, 0.1, 0.3, 1.0, 3.0, and 10 mg/kg-day for male rats and 0, 0.3, 1.0, 3.0, 10, and 30 mg/kg-day for female rats. For CTFPA, the dose levels were 0, 1.9, 3.8. 7.5, 15, and 30 mg/kg-day for male rats and 0, 6.3, 12.5, 25, 50, and 100 mg/kg-day for female rats. For each PFAS, three batches of dosing solution were prepared. The time between the batch preparation of the dosing solutions ranged between 29 and 39 days. Blood samples were collected from all the rats at termination for serum chemistry, hematology, coagulation, and the analysis of the parent PFAS chemical in the plasma. In vivo data collection and further detail on the endpoints examined postmortem are described below.
The rats were observed twice daily for morbidity and mortality throughout the study period. At least once prior to randomization to test groups and weekly thereafter, the rats were physically examined, and bodyweights were obtained. Feed consumption was quantified weekly starting on SD 1.
Neurotoxicity was evaluated using the functional observational battery (FOB) and measuring locomotor activity (LMA) 2–4 h post dosing on SDs 78–80 and 80–84, respectively. For both the 14- and 90-day studies, an ophthalmologic examination was conducted prior to randomization and near the end of the study, using indirect ophthalmoscopy and slit–lamp biomicroscopy (as needed) after the administration of a mydriatic solution.
Hematology, biochemistry, and coagulation endpoints were measured at the termination of the study. A Siemens Advia 2120i hematology analyzer (Siemens Healthineers, Erlangen, Germany) was used to measure (or calculate) the parameters related to the complete blood count, leukocyte differential count, and reticulocyte count. The hematology parameters are listed and described in Table 2. The prothrombin time […] and activated partial thromboplastin time (APTT) were measured using an Instrumentation Laboratory (Bedford, MA, USA) ACL Elite Pro coagulation analyzer (laser–nephelometric centrifugal method).
At necropsy, the rats were visually examined for external abnormalities and organ weights (absolute and relative to the BW and brain weight), which were recorded (paired organs weighed together). The tissues were preserved in 10% neutral buffered formalin (NBF), except for the ocular tissues, testes, and epididymides, which were preserved in modified Davidson’s fixative and later transferred to 10% NBF. Bone marrow smears were prepared from the femurs, and the slides were air-dried, fixed in methanol, stained, and stored at room temperature for possible future evaluation. The preserved tissues were embedded in paraffin, sectioned, stained with hematoxylin and eosin, and examined by a board-certified veterinary pathologist.
Statistical analysis was performed using Provantis™ Version 10 or greater (Instem LSS, Limited; Stone, Staffordshire, UK). Differences among the treatment groups compared to the control were evaluated using one-way analysis of variance (ANOVA) if the underlying assumptions of a normal distribution (Shapiro–Wilk test) and the homogeneity of the variance (Levene’s test) were satisfied. […]

## CC(=O)C(F)(F)C(F)(F)C(F)(F)F [MHFPK, Methyl heptafluoropropyl ketone]
90-day, both sexes, all doses
  Bodyweight (BW) and bodyweight gain: No changes in BW or BW gain over the course of the study
  Clinical observations: None
  Coagulation endpoints: Males at ≥37.5 mg/kg-day, from minimal to mild dose-dependent prolongations in PT; no effects in females
  Feed consumption: No changes in males; some statistically significant changes in females, not considered as compound related
  Functional observational battery: No changes
  Gross lesions: None considered as MHFPK related
  Hematology: From minimal to mild dose-dependent increases in MPV in both sexes at ≥18.8 mg/kg-day
  Histopathology: None considered as MHFPK related
  Locomotor activity: No effects
  Morbidity and mortality: None
  Ophthalmology: No ocular lesions
  Organ weight changes: None considered as MHFPK related
female
  LOEL, absolute kidney weight increase: NR
  LOEL, absolute liver weight increase: NR
  LOEL, relative kidney weight increase: NR
  LOEL, relative liver weight increase: NR
  NOEL, absolute kidney weight increase: NR
  NOEL, absolute liver weight increase: NR
  NOEL, relative kidney weight increase: NR
  NOEL, relative liver weight increase: NR
female, 18.8 mg/kg-day
  % BW Gain: 47.40%
  % Diff, % BW Gain: 25.52%
  % Diff, Total BW change: 27.05%
  % Diff, Total Food Consumed: 11.67%
  A/G: 1.12±0.13 ratio
  ABEOS: 0.108±0.037 K/µL
  ABNEUT: 1.004±0.296 K/µL
  ABRETi: 195.85±38.05 10^9/L
  ALB: 4.26 ± 0.27 g/dL
  ALPi: 69.1±55.5 U/L
  APTT: 16.80 s
  BUN: 15.5 ± 2.2 mg/dL
  CHOL: 100.6 ± 17.0 mg/dL
  GLOB: 3.82 ± 0.36 g/dL
  GLUC: 158.0 ± 18.9 mg/dL
  HCT: 46.27±2.37%
  HGB: 14.58 ± 0.67 g/dL
  Kidney Weight: 1.94 g
  Kidney/Body Weight: 0.56%
  Kidney/Brain Weight: 96.5%
  Liver Weight: 8.74 g
  Liver/Body Weight: 2.51%
  Liver/Brain Weight: 435%
  MPV: 8.22 ± 0.82 fL
  PT: 15.23 s
  RBC: 7.887±0.439 M/µL
  Total BW change: 115.68 g
  Total Food Consumed: 1629 g
female, 37.5 mg/kg-day
  % BW Gain: 44.49%
  % Diff, % BW Gain: 17.83%
  % Diff, Total BW change: 18.53%
  % Diff, Total Food Consumed: 1.46%
  A/G: 1.05±0.08 ratio
  ABEOS: 0.102±0.040 K/µL
  ABNEUT: 1.068±0.314 K/µL
  ABRETi: 190.80±35.78 10^9/L
  ALB: 4.17 ± 0.35 g/dL
  ALPi: 56.9±24.3 U/L
  APTT: 18.10 s
  BUN: 14.7 ± 2.4 mg/dL
  CHOL: 106.5 ± 21.4 mg/dL
  GLOB: 3.99 ± 0.28 g/dL
  GLUC: 161.9 ± 28.0 mg/dL
  HCT: 46.13±1.42%
  HGB: 14.42 ± 0.61 g/dL
  Kidney Weight: 1.84 g
  Kidney/Body Weight: 0.55%
  Kidney/Brain Weight: 91.4%
  Liver Weight: 8.76 g
  Liver/Body Weight: 2.58%
  Liver/Brain Weight: 433%
  MPV: 8.56 ± 0.67 fL
  PT: 14.98 s
  RBC: 7.864±0.307 M/µL
  Total BW change: 107.92 g
  Total Food Consumed: 1480 g
female, 75 mg/kg-day
  % BW Gain: 39.38%
